# Measurements reported in patent publication US10538555B2, “Macrocyclic inhibitors of the PD-1/PD-L1 and CD80(B7-1)/PD-L1 protein/protein interactions” (BRISTOL-MYERS SQUIBB COMPANY, priority 2014, dated 2020).
# pIC50: −log10 of the molar value. *1 amine or outer side, *2 acyl side, *3 side chain or, on linkers, in order; H or OH if unused. Where a SMILES comes first, the peptide text is derived from it. Bridges are numbered along the chain shown (N, C = ends). [ ]: non-standard residue; d: D form. Phe(3,4,5-F3) = N[C@@H](Cc1cc(F)c(F)c(F)c1)C(=O)O; NMePhe(4-F) = CN[C@@H](Cc1ccc(F)cc1)C(=O)O; d(cisHyp) = O=C(O)[C@H]1C[C@@H](O)CN1; NMeY = CN[C@@H](Cc1ccc(O)cc1)C(=O)O; NMeF = CN[C@@H](Cc1ccccc1)C(=O)O; X1 = O=C([C@H]1COCCN1[*:1])[*:2]; NMeNle = CCCC[C@H](NC)C(=O)O; dPip = O=C(O)[C@H]1CCCCN1; Orn = NCCC[C@H](N)C(=O)O; Dab = NCC[C@H](N)C(=O)O; Dap = NC[C@H](N)C(=O)O
# Biological target: T1, Human PD-L1/PD-1 (Homo sapiens, UniProt Q9NZQ7)
# T1 construct: TVMV protease cleavage site (C); made in house; host or cells: HEK293T cells
# T1 sequence (Q9NZQ7 with tags, fused parts or gaps): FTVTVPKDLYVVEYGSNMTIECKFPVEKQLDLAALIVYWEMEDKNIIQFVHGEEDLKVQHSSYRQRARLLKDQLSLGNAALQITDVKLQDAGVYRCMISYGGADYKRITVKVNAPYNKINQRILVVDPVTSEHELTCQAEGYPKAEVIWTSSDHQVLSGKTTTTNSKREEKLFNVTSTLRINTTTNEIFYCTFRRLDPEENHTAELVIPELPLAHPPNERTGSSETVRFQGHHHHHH
# Experiment: HTRF Human PD-L1/PD-1 binding assay (PD-1-Ig/PD-L1-His)
# Settings: PD-L1-His 10 nM, PD-1-Ig 20 nM; class symbol; read-out: HTRF Human PD-L1/PD-1 Binding Assay IC50 Range
# How it was run: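 Soluble HEK293T-expressed proteins: hPD-L1-His 10 nM, hPD-1-Ig 20 nM final. Cpd + PD-L1 15 min, + PD-1 15 min, + Eu anti-Ig 1 nM/APC anti-His 20 nM 30 min. Buffer dPBS, 0.1% BSA, 0.05% Tween-20. TR-FRET 665/620.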
row,Structure (SMILES),pIC50
1,"CCCC[C@H]1C(=O)N2CCC[C@@H]2C(=O)N[C@@H](CC(=O)O)C(=O)N[C@@H](C(C)C)C(=O)N(C)[C@@H](Cc2ccccc2)C(=O)N[C@@H](Cc2ccc(O)cc2)C(=O)N2CCCC[C@@H]2C(=O)N[C@H](CCC(=O)O)C(=O)N[C@@H](Cc2ccc(O)cc2)C(=O)N[C@@H](CCCN)C(=O)N[C@H](C(=O)NCC(N)=O)CSCC(=O)N[C@@H](Cc2cc(F)c(F)c(F)c2)C(=O)N(C)[C@@H](Cc2ccc(F)cc2)C(=O)N1C [Example 10610] ({CH2CO}-[Phe(3,4,5-F3)][NMePhe(4-F)][NMeNle][dP]DV[NMeF]Y[dPip][dE]Y[Orn]CG-NH2; thioether N-13)",6.00 to 7.00
2,"CC(C)C[C@@H]1NC(=O)[C@H](Cc2ccc(O)cc2)NC(=O)[C@H](Cc2c[nH]c3ccccc23)NC(=O)[C@H]2CCCCN2C(=O)[C@H](CCC(=O)O)NC(=O)[C@H](Cc2ccccc2)N(C)C(=O)[C@H](C(C)C)NC(=O)[C@H](CC(=O)O)NC(=O)[C@H]2CCCN2C(=O)[C@H](Cc2ccc(O)cc2)N(C)C(=O)[C@H](Cc2ccc(F)cc2)N(C)C(=O)[C@H](Cc2cc(F)c(F)c(F)c2)NC(=O)CSC[C@@H](C(=O)NCC(N)=O)NC1=O [Example 10611] ({CH2CO}-[Phe(3,4,5-F3)][NMePhe(4-F)][NMeY][dP]DV[NMeF]E[dPip]WYLCG-NH2; thioether N-13)",8.00 to 9.00
3,"CCCC[C@H]1C(=O)N2C[C@H](O)C[C@@H]2C(=O)N[C@@H](CC(=O)O)C(=O)N[C@@H](C(C)C)C(=O)N(C)[C@@H](Cc2ccccc2)C(=O)N[C@@H](CCC(=O)O)C(=O)N2C[C@H](O)C[C@@H]2C(=O)N[C@@H](Cc2c[nH]c3ccccc23)C(=O)N[C@@H](Cc2ccc(O)cc2)C(=O)N[C@@H](CCCN)C(=O)N[C@H](C(=O)NCC(N)=O)CSCC(=O)N[C@@H](Cc2cc(F)c(F)c(F)c2)C(=O)N(C)[C@@H](Cc2ccc(F)cc2)C(=O)N1C [Example 10612] ({CH2CO}-[Phe(3,4,5-F3)][NMePhe(4-F)][NMeNle][d(cisHyp)]DV[NMeF]E[d(cisHyp)]WY[Orn]CG-NH2; thioether N-13)",8.00 to 9.00
4,"CCCC[C@H]1C(=O)N2C[C@H](O)C[C@@H]2C(=O)N[C@@H](CC(=O)O)C(=O)N[C@@H](C(C)C)C(=O)N(C)[C@@H](Cc2ccccc2)C(=O)N[C@@H](CCN)C(=O)N2C[C@H](O)C[C@@H]2C(=O)N[C@@H](Cc2c[nH]c3ccccc23)C(=O)N[C@@H](Cc2ccc(O)cc2)C(=O)N[C@@H](CCCN)C(=O)N[C@H](C(=O)NCC(N)=O)CSCC(=O)N[C@@H](Cc2cc(F)c(F)c(F)c2)C(=O)N(C)[C@@H](Cc2ccc(F)cc2)C(=O)N1C [Example 10613] ({CH2CO}-[Phe(3,4,5-F3)][NMePhe(4-F)][NMeNle][d(cisHyp)]DV[NMeF][Dab][d(cisHyp)]WY[Orn]CG-NH2; thioether N-13)",8.00 to 9.00
5,"CC(C)C[C@@H]1NC(=O)[C@H](Cc2ccc(O)cc2)NC(=O)[C@H](Cc2c[nH]c3ccccc23)NC(=O)[C@H]2CCCCN2C(=O)[C@H](CCC(=O)O)NC(=O)[C@H](Cc2ccccc2)N(C)C(=O)[C@H](C(C)C)NC(=O)[C@H](CC(=O)O)NC(=O)[C@H]2CCCN2C(=O)[C@H](Cc2ccccc2)N(C)C(=O)[C@H](Cc2ccc(F)cc2)N(C)C(=O)[C@H](Cc2cc(F)c(F)c(F)c2)NC(=O)CSC[C@@H](C(=O)NCC(N)=O)NC1=O [Example 10614] ({CH2CO}-[Phe(3,4,5-F3)][NMePhe(4-F)][NMeF][dP]DV[NMeF]E[dPip]WYLCG-NH2; thioether N-13)",7.00 to 8.00
6,"CCCC[C@H]1C(=O)N2CCC[C@@H]2C(=O)N[C@@H](CC(=O)O)C(=O)N[C@@H](C(C)C)C(=O)N(C)[C@@H](Cc2ccccc2)C(=O)N[C@@H](CCC(=O)O)C(=O)N2CCOC[C@@H]2C(=O)N[C@@H](Cc2c[nH]c3ccccc23)C(=O)N[C@@H](Cc2ccc(O)cc2)C(=O)N[C@@H](CC(C)C)C(=O)N[C@H](C(=O)NCC(N)=O)CSCC(=O)N[C@@H](Cc2cc(F)c(F)c(F)c2)C(=O)N(C)[C@@H](Cc2ccc(O)cc2)C(=O)N1C [Example 10615] ({CH2CO}-[Phe(3,4,5-F3)][NMeY][NMeNle][dP]DV[NMeF]E[X1]WYLCG-NH2; thioether N-13)",7.00 to 8.00
7,"CCCC[C@H]1C(=O)N2CCC[C@@H]2C(=O)N[C@@H](CC(=O)O)C(=O)N[C@@H](C(C)C)C(=O)N(C)[C@@H](Cc2ccccc2)C(=O)N[C@@H](CCC(=O)O)C(=O)N2CCOC[C@@H]2C(=O)N[C@@H](Cc2c[nH]c3ccccc23)C(=O)N[C@@H](Cc2ccc(O)cc2)C(=O)N[C@@H](CN)C(=O)N[C@H](C(=O)NCC(N)=O)CSCC(=O)N[C@@H](Cc2cc(F)c(F)c(F)c2)C(=O)N(C)[C@@H](Cc2ccc(O)cc2)C(=O)N1C [Example 10617] ({CH2CO}-[Phe(3,4,5-F3)][NMeY][NMeNle][dP]DV[NMeF]E[X1]WY[Dap]CG-NH2; thioether N-13)",7.00 to 8.00
8,"CCCC[C@H]1C(=O)N2CCC[C@@H]2C(=O)N[C@@H](CC(=O)O)C(=O)N[C@@H](C(C)C)C(=O)N(C)[C@@H](Cc2ccccc2)C(=O)N[C@@H](CCC(=O)O)C(=O)N2CCOC[C@@H]2C(=O)N[C@@H](Cc2c[nH]c3ccccc23)C(=O)N[C@@H](Cc2ccc(O)cc2)C(=O)N[C@@H](CCCN)C(=O)N[C@H](C(=O)NCC(N)=O)CSCC(=O)N[C@@H](Cc2cc(F)c(F)c(F)c2)C(=O)N(C)[C@@H](Cc2ccc(O)cc2)C(=O)N1C [Example 10618] ({CH2CO}-[Phe(3,4,5-F3)][NMeY][NMeNle][dP]DV[NMeF]E[X1]WY[Orn]CG-NH2; thioether N-13)",7.00 to 8.00
9,"CCCC[C@H]1C(=O)N2CCC[C@@H]2C(=O)N[C@@H](CC(=O)O)C(=O)N[C@@H](C(C)C)C(=O)N(C)[C@@H](Cc2ccccc2)C(=O)N[C@@H](CCC(=O)O)C(=O)N2CCOC[C@@H]2C(=O)N[C@@H](Cc2c[nH]c3ccccc23)C(=O)N[C@@H](Cc2ccc(O)cc2)C(=O)N[C@@H](CCC(N)=O)C(=O)N[C@H](C(=O)NCC(N)=O)CSCC(=O)N[C@@H](Cc2cc(F)c(F)c(F)c2)C(=O)N(C)[C@@H](Cc2ccc(O)cc2)C(=O)N1C [Example 10619] ({CH2CO}-[Phe(3,4,5-F3)][NMeY][NMeNle][dP]DV[NMeF]E[X1]WYQCG-NH2; thioether N-13)",7.00 to 8.00
10,"CCCC[C@H]1C(=O)N2CCC[C@@H]2C(=O)N[C@@H](CC(=O)O)C(=O)N[C@@H](C(C)C)C(=O)N(C)[C@@H](Cc2ccccc2)C(=O)N[C@@H](CCN)C(=O)N2CCOC[C@@H]2C(=O)N[C@@H](Cc2c[nH]c3ccccc23)C(=O)N[C@@H](Cc2ccc(O)cc2)C(=O)N[C@@H](CC(C)C)C(=O)N[C@H](C(=O)NCC(N)=O)CSCC(=O)N[C@@H](Cc2cc(F)c(F)c(F)c2)C(=O)N(C)[C@@H](Cc2ccc(O)cc2)C(=O)N1C [Example 10622] ({CH2CO}-[Phe(3,4,5-F3)][NMeY][NMeNle][dP]DV[NMeF][Dab][X1]WYLCG-NH2; thioether N-13)",7.00 to 8.00
11,"CCCC[C@H]1C(=O)N2CCC[C@@H]2C(=O)N[C@@H](CC(=O)O)C(=O)N[C@@H](C(C)C)C(=O)N(C)[C@@H](Cc2ccccc2)C(=O)N[C@@H](CCN)C(=O)N2CCOC[C@@H]2C(=O)N[C@@H](Cc2c[nH]c3ccccc23)C(=O)N[C@@H](Cc2ccc(O)cc2)C(=O)N[C@@H](CCN)C(=O)N[C@H](C(=O)NCC(N)=O)CSCC(=O)N[C@@H](Cc2cc(F)c(F)c(F)c2)C(=O)N(C)[C@@H](Cc2ccc(O)cc2)C(=O)N1C [Example 10623] ({CH2CO}-[Phe(3,4,5-F3)][NMeY][NMeNle][dP]DV[NMeF][Dab][X1]WY[Dab]CG-NH2; thioether N-13)",8.00 to 9.00
12,"CCCC[C@H]1C(=O)N2CCC[C@@H]2C(=O)N[C@@H](CC(=O)O)C(=O)N[C@@H](C(C)C)C(=O)N(C)[C@@H](Cc2ccccc2)C(=O)N[C@@H](CCN)C(=O)N2CCOC[C@@H]2C(=O)N[C@@H](Cc2c[nH]c3ccccc23)C(=O)N[C@@H](Cc2ccc(O)cc2)C(=O)N[C@@H](CCC(=O)O)C(=O)N[C@H](C(=O)NCC(N)=O)CSCC(=O)N[C@@H](Cc2cc(F)c(F)c(F)c2)C(=O)N(C)[C@@H](Cc2ccc(O)cc2)C(=O)N1C [Example 10624] ({CH2CO}-[Phe(3,4,5-F3)][NMeY][NMeNle][dP]DV[NMeF][Dab][X1]WYECG-NH2; thioether N-13)",7.00 to 8.00
13,"CCCC[C@H]1C(=O)N2CCC[C@@H]2C(=O)N[C@@H](CC(=O)O)C(=O)N[C@@H](C(C)C)C(=O)N(C)[C@@H](Cc2ccccc2)C(=O)N[C@@H](CCN)C(=O)N2CCOC[C@@H]2C(=O)N[C@@H](Cc2c[nH]c3ccccc23)C(=O)N[C@@H](Cc2ccc(O)cc2)C(=O)N[C@@H](CCCN)C(=O)N[C@H](C(=O)NCC(N)=O)CSCC(=O)N[C@@H](Cc2cc(F)c(F)c(F)c2)C(=O)N(C)[C@@H](Cc2ccc(O)cc2)C(=O)N1C [Example 10625] ({CH2CO}-[Phe(3,4,5-F3)][NMeY][NMeNle][dP]DV[NMeF][Dab][X1]WY[Orn]CG-NH2; thioether N-13)",7.00 to 8.00
14,"CCCC[C@H]1C(=O)N2CCC[C@@H]2C(=O)N[C@@H](CC(=O)O)C(=O)N[C@@H](C(C)C)C(=O)N(C)[C@@H](Cc2ccccc2)C(=O)N[C@@H](CCN)C(=O)N2CCOC[C@@H]2C(=O)N[C@@H](Cc2c[nH]c3ccccc23)C(=O)N[C@@H](Cc2ccc(O)cc2)C(=O)N[C@@H](CCC(N)=O)C(=O)N[C@H](C(=O)NCC(N)=O)CSCC(=O)N[C@@H](Cc2cc(F)c(F)c(F)c2)C(=O)N(C)[C@@H](Cc2ccc(O)cc2)C(=O)N1C [Example 10626] ({CH2CO}-[Phe(3,4,5-F3)][NMeY][NMeNle][dP]DV[NMeF][Dab][X1]WYQCG-NH2; thioether N-13)",7.00 to 8.00

# Same assay, conditions: PD-L1-His 10 nM, PD-1-Ig 20 nM; read-out: HTRF Human PD-L1/PD-1 Binding Assay IC50
row,Structure (SMILES),pIC50
1,"CCCC[C@H]1C(=O)N2CCC[C@@H]2C(=O)N[C@@H](CC(=O)O)C(=O)N[C@@H](C(C)C)C(=O)N(C)[C@@H](Cc2ccccc2)C(=O)N[C@@H](CCC(=O)O)C(=O)N2CCOC[C@@H]2C(=O)N[C@@H](Cc2c[nH]c3ccccc23)C(=O)N[C@@H](Cc2ccc(O)cc2)C(=O)N[C@@H](CCN)C(=O)N[C@H](C(=O)NCC(N)=O)CSCC(=O)N[C@@H](Cc2cc(F)c(F)c(F)c2)C(=O)N(C)[C@@H](Cc2ccc(O)cc2)C(=O)N1C [Example 10616] ({CH2CO}-[Phe(3,4,5-F3)][NMeY][NMeNle][dP]DV[NMeF]E[X1]WY[Dab]CG-NH2; thioether N-13)",7.97
